{
  "source": "patent US20230404077A1",
  "about": "“METHODS AND FORMULATIONS FOR CONTROLLING FLEA INFESTATIONS” (EctoGuard, LLC, priority 2022, published 2023)",
  "origin": "cited, not measured here",
  "key": {"fleas [1]": {"tested_on": "fleas", "settings": "systemic / administered orally"}, "fleas [2]": {"tested_on": "fleas", "settings": "cats, topical"}, "fleas [3]": {"tested_on": "fleas", "settings": "cats"}},
  "data": [
    {"substance": "spinetoram", "values": [
      {"measurement": "activity relative to spinosad", "setting": "fleas [1]", "result": 5.5, "unit": "times"},
      {"measurement": "topically active dose, corresponding extrapolated value", "setting": "fleas [2]", "result": "around 10 mg/kg"}
    ]},
    {"substance": "spinosad", "values": [
      {"measurement": "commercial oral dose for effective control (≥90% mortality)", "setting": "fleas [3]", "result": "45 to 90", "unit": "mg/kg"}
    ]}
  ]
}
